# Test results published in US12642270B2, “Substituted thiophene carboxamides, thiophene carboxylic acids and derivatives thereof” (Bayer Aktiengesellschaft, priority 2019, dated 2026).
# Test: Log P by HPLC on reversed phase columns (EEC directive 79/831 Annex V.A8)
# Assay type: physicochemical
# Procedure: In the above tables, measurement of Log P values was performed according to EEC directive 79/831 Annex V.A8 by HPLC (High Performance Liquid Chromatography) on reversed phase columns with the following methods: • ^[a] Log P value is determined by measurement of LC-UV, in an acidic range, with 0.1% formic acid in water and acetonitrile as eluent (linear gradient from 10% acetonitrile to 95% acetonitrile). • ^[b] Log P value is determined by measurement of LC-UV, in a neutral range, with 0.001 molar ammonium acetate solution in water and acetonitrile as eluent (linear gradient from 10% acetonitrile to 95% acetonitrile). • ^[c] Log P value is determined by measurement of LC-UV, in an acidic range, with 0.1% phosphoric acid and acetonitrile as eluent (linear gradient from 10% acetonitrile to 95% acetonitrile). If more than one Log P value is available within the same method, all the values are given and separated by “+”. Calibration was done with straight-chain alkan2-ones (with 3 to 16 carbon atoms) with known Log P values (measurement of Log P values using retention times with linear interpolation between successive alkanones). Lambda-max-values were determined using UV-spectra from 200 nm to 400 nm and the peak values of the chromatographic signals.
# [1] = LogP method [a], compounds of formula (I), Table 1.1
# [2] = method marker [a] given with each value, Table 1.1, compounds of formula (I)
# [3] = method [a]: LC-UV, acidic range, 0.1% formic acid in water and acetonitrile
# [4] = method [a], compounds of formula (I), Table 1.1
compound,measurement,setting,value
O=C(O)CNC(=O)c1sc(Br)c(Br)c1Cl [1.0494],LogP,[1],2.28^[a]
CNC(=O)CNC(=O)c1sc(Br)c(Br)c1Cl [1.1045],LogP,[2],2.07^[a]
Cc1c(C(=O)NCC(=O)OCCC#N)sc(C#N)c1Br [1.0996],LogP,[2],2.09^[a]
Cc1cc(C(=O)O)sc1Cl [II.038],LogP,[3],2.16^[a]
CCOC(=O)C1(NC(=O)c2sc(Cl)c(Cl)c2Br)CCC1 [1.0085],LogP,[4],4.23^[a]
O=C(NC1(C(=O)O)CCC1)c1sc(Cl)c(Br)c1Cl [1.0486],LogP,[1],2.95^[a]
Cc1c(C(=O)O)sc(Br)c1Cl [II.015],LogP,[3],2.75^[a]
CC(C)OC(=O)C1(NC(=O)c2sc(Cl)c(Cl)c2Br)CCC1 [1.0611],LogP,method [a],4.69^[a]
CCOC(=O)C(Cc1ccccc1)NC(=O)c1cc(C#N)c(Br)s1 (stereo not shown) [1.0405],LogP,[1],3.48^[a]
CCOC(=O)C(NC(=O)c1sc(Br)c(Cl)c1C)C1CC1 (stereo not shown) [1.0272],LogP,method marked [a],3.77^[a]
CNC(=S)CNC(=O)c1sc(Br)c(Br)c1F [1.1001],LogP,[2],2.56^[a]
Cc1c(C(=O)NC2(C(=O)OC3CCC3)CCC2)sc(Cl)c1Br [1.0725],LogP,method marked [a],4.37^[a]
COC(=O)C1(NC(=O)c2sc(Br)c(Cl)c2C)CC1 [1.0163],LogP,method [a],2.76^[a]
CCOC(=O)C(Cc1ccccc1)NC(=O)c1sc(Br)c(Br)c1F (stereo not shown) [1.0051],LogP,[4],4.55^[a]
Cc1c(C(=O)N[C@H]2CCOC2=O)sc(C#N)c1Br [I.0761],LogP,[3],1.94^[a]
COC(=O)C(C)(C)NC(=O)c1sc(Cl)c(Cl)c1Br [1.1021],LogP,[2],3.71^[a]
CCOC(=O)C1(NC(=O)c2sc(Br)c(Br)c2C(F)F)CSC1 [1.1052],LogP,[2],3.58^[a]
COC(=O)CNC(=S)c1sc(Cl)c(Cl)c1I [1.0499],LogP,[1],4.12^[a]
CCOC(=O)[C@H](CO)NC(=O)c1sc(Br)c(Br)c1F [1.0832],LogP,method [a],2.54^[a]
COC(=O)C(C)(C)NC(=O)c1sc(Cl)c(Br)c1Cl [1.1019],LogP,[2],3.73^[a]
CC(C)(NC(=O)c1sc(Cl)c(Br)c1Cl)C(=O)O [1.1022],LogP,[2],2.80^[a]
O=C(NC1(C(=O)OCC2CC2)CCC1)c1sc(Br)c(Br)c1F [1.0924],LogP,method [a],4.33^[a]
CCOC(=O)C(CO)NC(=O)c1sc(C#N)c(Br)c1C (stereo not shown) [1.0834],LogP,method [a],2.16^[a]
CCOC(=O)CNC(=O)c1sc(Br)c(C(F)F)c1Br [1.0646],LogP,method [a],2.92^[a]
N#Cc1cc(C(=O)O)sc1Cl [II.041],LogP,[3],1.44^[a]
CCCOC(=O)C1(NC(=O)c2sc(Cl)c(Br)c2Br)CC1 [1.0593],LogP,method [a],3.98^[a]
Cc1c(C(=O)NC2(C(=O)OC3CCC3)CC2)sc(C#N)c1Br [1.0968],LogP,[2],3.13^[a]
CCOC(=O)[C@@H](CC(C)C)NC(=O)c1sc(Br)c(Br)c1F [1.0156],LogP,method [a],4.78^[a]
COC(=O)CNC(=O)c1sc(C#N)c(Cl)c1Br [1.0665],LogP,method marked [a],2.25^[a]
CCOC(=O)CNC(=O)c1sc(Cl)c(Cl)c1F [1.0344],LogP,method marked [a],2.83^[a]
CCOC(=O)CNC(=O)c1sc(C#N)c(Cl)c1Cl [1.0570],LogP,method [a],2.60^[a]
CCOC(=O)C(NC(=O)c1sc(F)c(Cl)c1C)C(C)C (stereo not shown) [1.0299],LogP,method marked [a],3.87^[a]
CCCCOC(=O)CNC(=O)c1sc(Br)c(Br)c1Cl [1.0987],LogP,[2],4.22^[a]
CCOC(=O)CN(OC)C(=O)c1sc(Cl)c(Cl)c1Br [1.0790],LogP,method marked [a],3.71^[a]
COC(=O)C1(NC(=O)c2sc(C#N)c(Cl)c2Cl)CC1 [1.0573],LogP,method [a],2.40^[a]
COC(=O)C(NC(=O)c1cc(Cl)c(Br)s1)C1CC1 (stereo not shown) [1.0259],LogP,method [a],3.01^[a]
COC(=O)C1(NC(=O)c2sc(Br)c(Cl)c2F)CC1 [1.0424],LogP,[1],2.72^[a]
CCOC(=O)CNC(=S)c1sc(Cl)c(Cl)c1Br [1.0059],LogP,[4],4.61^[a]
N#CCCOC(=O)CNC(=O)c1sc(Br)c(Br)c1Cl [1.0984],LogP,[2],2.76^[a]
CCOC(=O)C(NC(=O)c1sc(C#N)c(Br)c1Cl)C(C)C (stereo not shown) [1.0588],LogP,method [a],3.92^[a]
COC(=O)C(CCSC)NC(=O)c1sc(Br)c(Br)c1C(F)F (stereo not shown) [1.1065],LogP,[2],3.55^[a]
CCOC(=O)C(C)(C)NC(=O)c1sc(Cl)c(Br)c1Br [1.0701],LogP,method marked [a],4.30^[a]
CCOC(=O)C1(NC(=O)c2sc(C#N)c(Br)c2C)CCC1 [1.0244],LogP,method [a],3.07^[a]
O=C(NC1(C(=O)OC2CCC2)CC1)c1sc(Br)c(C(F)F)c1Br [1.0508],LogP,[1],3.57^[a]
Cc1c(C(=O)NCC(=O)Oc2ccccc2)sc(C#N)c1Br [1.0967],LogP,[2],3.10^[a]
Cc1c(C(=O)NCC(=O)OCC2CC2)sc(C#N)c1Br [1.0982],LogP,[2],2.86^[a]
